Patent US11286258B2, “Nature-inspired anticancer and antibacterial motifs and pharmaceutical composition thereof” (University of Sharjah, priority 2020, dated 2022)
≈ marks a conversion by molar mass, not a printed value. Each block holds one compound with its values, some of them ahead of it.

Legend:
[1] = system: MRSA-1 (clinical isolate); assay: MIC broth microdilution, MRSA-1; assay type: cell-based, Staphylococcus aureus; settings: Staphylococcus aureus, MRSA; overnight incubation, Mueller-Hinton broth; read-out: MIC MRSA-1 (clinical isolate)
Description: (§1) Antibacterial activity: The compounds were tested for the minimum inhibitory concentrations (MIC), which is the lowest concentration of a chemical required to inhibit visible microbial growth following overnight incubation. MIC values were determined using broth microdilution method according to the Clinical and Laboratory Standards Institute guidelines (CLSI, 2015, M07-A10). Mueller-Hinton broth was used as a culture medium in all the experiments. Exponentially growing bacterial cells were prepared in Mueller-Hinton broth at a concentration of approximately 5×10^5 CFU/mL. Two-fold serial dilutions of the test compound (8 concentrations ranged between 100-0.78 μg/mL) were tested. […] In each experiment, solvent (DMSO) was used as a negative control, un-treated control (composing of bacteria in Mueller-Hinton broth) was used as a growth control, blank (culture media alone) was used as sterility control. The 96-well microplate with the test compounds was incubated overnight at 37° C. Turbidity in wells indicated bacterial growth.
(§2) The compounds were tested on six MDR Gram-positive bacteria including three clinical isolates of methicillin-resistant Staphylococcus aureus (MRSA-1, MRSA-2 and MRSA-3) and three reference MRSA strains (ATCC33591, ATCC33592 and ATCC700699). They were also tested on three MDR Gram-negative bacteria including New Delhi metallo-beta-lactamase (NDM-1) positive, carbapenem-resistant E. coli (ATCC BAA2469), extended-spectrum beta-lactamase (ESBL) producing, colistin-resistant E. coli (CDC-AR-0346) and carbapenem-resistant Acinetobacter baumannii (ATCC BAA1605), in addition to two non-MDR bacteria from the same species, namely E. coli (ATCC 25922) Acinetobacter baumannii (ATCC 19606).

[2] = system: MRSA-2 (clinical isolate); assay: MIC broth microdilution, MRSA-2; assay type: cell-based, Staphylococcus aureus; settings: Staphylococcus aureus, MRSA; overnight incubation, Mueller-Hinton broth; read-out: MIC MRSA-2 (clinical isolate)
Description: as §1, §2

[3] = system: MRSA-3 (clinical isolate); assay: MIC broth microdilution, MRSA-3; assay type: cell-based, Staphylococcus aureus; settings: Staphylococcus aureus, MRSA; overnight incubation, Mueller-Hinton broth; read-out: MIC MRSA-3 (clinical isolate)
Description: as §1, §2

MRSA-ATCC33591 = assay: MIC broth microdilution, MRSA ATCC33591; assay type: cell-based, Staphylococcus aureus; settings: Staphylococcus aureus; overnight incubation, Mueller-Hinton broth; read-out: MIC MRSA-ATCC33591
Description: as §1, §2

MRSA-ATCC33592 = assay: MIC broth microdilution, MRSA ATCC33592; assay type: cell-based, Staphylococcus aureus; settings: Staphylococcus aureus; overnight incubation, Mueller-Hinton broth; read-out: MIC MRSA-ATCC33592
Description: as §1, §2

MRSA-ATCC700699 (VISA) = assay: MIC broth microdilution, MRSA ATCC700699 (VISA); assay type: cell-based, Staphylococcus aureus; settings: Staphylococcus aureus; strain intermediately resistant to vancomycin; overnight incubation; read-out: MIC MRSA-ATCC700699 (VISA)
Description: as §1, §2

E. coli ATCC25922 = assay: MIC broth microdilution, E. coli ATCC25922; assay type: cell-based, Escherichia coli; settings: Escherichia coli, ATCC25922; not MDR; overnight incubation
Description: as §1, §2

[4] = system: E. coli ATCC BAA2469 (NDM-1 carbapenem-resistant); assay: MIC broth microdilution, E. coli ATCC BAA2469; assay type: cell-based, Escherichia coli; settings: Escherichia coli, ATCCBAA2469, MDR; overnight incubation
Description: as §1, §2

[5] = system: E. coli CDC-AR-0346 (ESBL, colistin resistant); assay: MIC broth microdilution, E. coli CDC-AR-0346; assay type: cell-based, Escherichia coli; settings: Escherichia coli; MDR; overnight incubation
Description: as §1, §2

[6] = system: Acinetobacter baumannii ATCC 19606; assay: MIC broth microdilution, A. baumannii ATCC 19606; assay type: cell-based; settings: Acinetobacter baumannii, ATCC19606; not MDR; overnight incubation
Description: as §1, §2

[7] = system: Acinetobacter baumannii ATCC BAA1605 (carbapenem-resistant); assay: MIC broth microdilution, A. baumannii ATCC BAA1605; assay type: cell-based; settings: Acinetobacter baumannii, ATCCBAA1605, MDR; overnight incubation
Description: as §1, §2

6 MRSA strains = assay: MIC, panel of 6 MRSA strains; assay type: cell-based; settings: Staphylococcus aureus, across the panel of tested Gram-positive strains, read-out: MIC against all the 6 MRSA strains
Description: as §1, §2

MDR E. coli strains = assay: MIC, both MDR E. coli strains; assay type: cell-based; settings: Escherichia coli, ATCCBAA2469; across ATCC BAA2469 and CDC-AR-0346
Description: as §1
The compounds were tested on six MDR Gram-positive bacteria including three clinical isolates of methicillin-resistant Staphylococcus aureus (MRSA-1, MRSA-2 and MRSA-3) and three reference MRSA strains (ATCC33591, ATCC33592 and ATCC700699). […]

HCT-116 = assay: MTT cell viability, HCT-116; assay type: cell-based; settings: Homo sapiens, colon cancer, 48 h of drug treatment, average of three experiments
Text: (§3) Cell culture: In this study five different cancer cell lines were used, human lung carcinoma (A549), human breast adenoma (MCF-7), Cervical carcinoma (Hela), hepatocellular carcinoma (Hep3B), and colorectal adenocarcinoma (HCT-116). These cells were obtained from the European Collection of Cell Cultures (ECACC, UK). Hep3B cells were maintained in Dulbecco's Modified Eagle Medium (DMEM: Sigma-Aldrich), and the four other cell lines were maintained in Roswell Park Memorial Institute medium (RPMI, Sigma-Aldrich, St. Louis, Mo., USA), which was supplemented with 10% fetal bovine serum (FBS, Sigma-Aldrich) and 1% penicillin/streptomycin (Sigma-Aldrich). Cells were incubated all the time at 37° C. in a humidified atmosphere of 5% CO2. Cell viability studies: Cell viability was assessed using the MTT assay as described before. In brief, all cancer cell lines were seeded at a density of 4×10^4/well in 96 well flat-bottom plates. After 24 h from seeding, cells were treated with the synthesized compounds and left for an incubation period of 48 h. Upon reaching the indicated time point, the media was removed and replaced with 200 μL fresh media containing 0.5 mg/mL of MTT tetrazolium dye (Sigma-Aldrich). Cells were then incubated with MTT solution for 2 h at 37° C. The resultant formazan crystals were dissolved in 200 μl/well of DMSO and absorbance was measured at 570 nm using a microplate reader (Thermo Scientific).

HELA = assay: MTT cell viability, HELA; assay type: cell-based; settings: Homo sapiens, cervical cancer, 48 h of drug treatment, average of three experiments
Text: as §3

A549 = assay: MTT cell viability, A549; assay type: cell-based; settings: Homo sapiens, lung cancer, 48 h of drug treatment, average of three experiments
Text: as §3

HEP3B = assay: MTT cell viability, HEP3B; assay type: cell-based; settings: Homo sapiens, liver cancer, 48 h of drug treatment, average of three experiments
Text: as §3

MCF-7 = assay: MTT cell viability, MCF-7; assay type: cell-based; settings: Homo sapiens, MCF7; breast cancer; 48 h of drug treatment; average of three experiments
Text: as §3

SKOV3 = assay: MTT cell viability, SKOV3; assay type: cell-based; settings: Homo sapiens, SK-OV-3; 48 h of drug treatment; average of three experiments
Description: (§4) Cell viability studies: Cell viability was assessed using the MTT assay as described before. In brief, all cancer cell lines were seeded at a density of 4×10^4/well in 96 well flat-bottom plates. After 24 h from seeding, cells were treated with the synthesized compounds and left for an incubation period of 48 h. Upon reaching the indicated time point, the media was removed and replaced with 200 μL fresh media containing 0.5 mg/mL of MTT tetrazolium dye (Sigma-Aldrich). Cells were then incubated with MTT solution for 2 h at 37° C. The resultant formazan crystals were dissolved in 200 μl/well of DMSO and absorbance was measured at 570 nm using a microplate reader (Thermo Scientific).

SKBR3 = assay: MTT cell viability, SKBR3; assay type: cell-based; settings: Homo sapiens, SK-BR-3; breast cancer; 48 h of drug treatment; average of three experiments
Description: as §4

MDA-MB-231 = assay: MTT cell viability, MDA-MB-231; assay type: cell-based; settings: Homo sapiens, breast cancer, 48 h of drug treatment, average of three experiments
Description: as §4

JIMT1 = assay: MTT cell viability, JIMT1; assay type: cell-based; settings: Homo sapiens, JIMT-1; breast cancer; 48 h of drug treatment; average of three experiments
Description: as §4

MDA-MB-468 = assay: MTT cell viability, MDA-MB-468; assay type: cell-based; settings: Homo sapiens, breast cancer, 48 h of drug treatment, average of three experiments
Description: as §4

AGS = assay: MTT cell viability, AGS; assay type: cell-based; settings: Homo sapiens, stomach cancer, 48 h of drug treatment, average of three experiments
Description: as §4

[8] = system: normal epithelial cells (HMEC); assay: Cell viability, normal epithelial cells; assay type: cell-based; settings: Homo sapiens, 48 h of drug treatment, average of three experiments
Description: as §4

Hela cells = assay: Western blot, autophagy- and iron metabolism-related proteins, Hela; assay type: cell-based, human
Description: Western Blotting (autophagy- and iron metabolism-related proteins): Cells were grown in DMEM supplemented with 10% FBS and 1×PEST (Penicillin and streptomycin antibiotics) at 37° C. in incubator having humidified atmosphere with 5% CO2. The media were removed and cells were washed twice with 1× cold PBS. Cells lysis was performed with RIPA lysis buffer containing (150 mM sodium chloride, 1.0% NP-40, 0.1% SDS, 50 mM Tris pH 8.0, 0.5% sodium deoxycholate supplemented with protease inhibitors cocktail). Cells were kept on icebox during the lysis process. Cold lysis buffer was added to each well directly and then cells were scraped and collected in 1.5 ml Eppendorf tube. Cell lysis was kept on icebox for 20 minutes and then centrifuged at 4° C. for 10 minutes. The supernatant was collected and the pellet was discarded. After, protein quantification, samples were boiled in 5× loading buffer at 95° C. for 5 minutes. After completion of the gel running and transfer process, the membrane was stained with ponceau solution. After that, the membrane was washed with 1×TBST and then blocked in 5% non-fat dry milk for 1 hr at room temperature. The membrane was washed 3 times with 1×TBST and then incubated with indicated primary antibodies at 4° C. overnight. Primary antibodies were removed; the membrane was washed 3 times with 1×TBST and then incubated with secondary antibodies for 2 h at room temperature. Secondary antibodies were diluted in 5% non-fat dry milk in 1× TB ST. After removal of the secondary antibody, the membrane was washed 3 times with 1×TBST. The membrane was incubated in ECL solution and the signal was developed using Gel Doc system from Biorad.

- MIC [1]: 16 µg/mL (≈ 27.3 µM)
- MIC [2]: 8 µg/mL (≈ 13.7 µM)
- MIC [3]: 2 µg/mL (≈ 3.42 µM)
- MIC (MRSA-ATCC33591): 50 µg/mL (≈ 85.4 µM)
- MIC (MRSA-ATCC33592): 50 µg/mL (≈ 85.4 µM)
- MIC (MRSA-ATCC700699 (VISA)): 100 µg/mL (≈ 171 µM)
- MIC (E. coli ATCC25922): 2.5 µg/mL (≈ 4.27 µM)
- MIC [4]: > 1000 µg/mL
- MIC [5]: > 1000 µg/mL
- MIC [6]: 10 µg/mL (≈ 17.1 µM)
- MIC [7]: 1.25 µg/mL (≈ 2.13 µM)
- MIC (6 MRSA strains): 2 to 100 µg/mL (≈ 3.42 to 171 µM)
- MIC (MDR E. coli strains): > 1000 µg/mL
SMILES: NCC[C@H](O)C(=O)N[C@@H]1C[C@H](N)[C@@H](O[C@H]2O[C@H](CN)[C@@H](O)[C@H](O)[C@H]2O)[C@H](O)[C@H]1O[C@H]1O[C@H](CO)[C@@H](O)[C@H](N)[C@H]1O [Amikacin, reference compound]

- IC50 (HCT-116): 2.49 ± 0.02 µM
- IC50 (HELA): 3.14 ± 0.04 µM
- IC50 (A549): 5.22 ± 0.03 µM
- IC50 (HEP3B): 2.32 ± 0.16 µM
- IC50 (MCF-7): 3.09 ± 0.04 µM
- IC50 (SKOV3): 6.52 ± 0.2 µM
- IC50 (SKBR3): 3.93 ± 0.16 µM
- IC50 (MDA-MB-231): 4.22 ± 0.1 µM
- IC50 (MDA-MB-468): 3.06 ± 0.17 µM
- IC50 (AGS): 5.37 ± 0.17 µM
- MIC [1]: 3.12 µg/mL (≈ 7.31 µM)
- MIC [2]: 3.12 µg/mL (≈ 7.31 µM)
- MIC [3]: 3.12 µg/mL (≈ 7.31 µM)
- MIC (MRSA-ATCC33591): 3.12 µg/mL (≈ 7.31 µM)
- MIC (MRSA-ATCC33592): 3.12 µg/mL (≈ 7.31 µM)
- MIC (MRSA-ATCC700699 (VISA)): 3.12 µg/mL (≈ 7.31 µM)
SMILES: O=[N+]([O-])c1ccc(N/N=C2\C=C[C@@]3(CC2)CC[C@@H]2NCCc4c2n3c2ccccc42)cc1 [Compound 1d]
- IC50 (JIMT1): 4 ± 0.1 µM
- IC50 [8]: 42.04 ± 0.08 µM
- Expression and metabolism of autophagy marker LC3B1/II (Hela cells): upregulate
- Expression of DNA damage marker pH2AX (Hela cells): induce
